Test system: B. burgdorferi log and stationary phase cultures
Assay: epi-fluorescence microscope counting after antibiotic exposure (persister frequency, planktonic forms)
Type: cell-based, Borrelia burgdorferi

C[C@H]1c2cccc(O)c2C(=O)C2=C(O)[C@]3(O)C(=O)C(C(N)=O)=C(O)[C@@H](N(C)C)[C@@H]3[C@@H](O)[C@@H]21 [Doxycycline]
persister frequency (percentage of live cells after antibiotic treatment, in brackets) (3-day log phase culture): (6.4%)
persister frequency (in brackets) (7-day stationary phase culture): (24%)
persister frequency (in brackets) (10-day stationary phase culture): (~25%)
planktonic form cells remaining green (live) (10-day-old stationary phase culture, 10 μg/mL, 7 days, FIG. 17A): about 71%

From US20170058314A1, “NOVEL METHODOLOGY FOR IDENTIFYING ANTI-PERSISTER ACTIVITY AND ANTIMICROBIAL SUSCEPTIBILITY FOR BORRELIA BURGDORFERI AND OTHER BACTERIA” (priority 2014, published 2017)
